From patent US4880777A, “Synthetic peptides having growth hormone releasing activity” (Eastman Kodak Company, priority 1987, dated 1989)
“And” between values parts separate entries of the source, which are not always exact repeats. Equal values may be shown once. Where a SMILES comes first, the peptide text is derived from it. Bridges are numbered along the chain shown (N, C = ends). [ ]: non-standard residue; d: D form. Nle = CCCC[C@H](N)C(=O)O

Legend:
[1] = tested on: growth hormone (GH); experiment: In vivo GH release in rats (serum GH by RIA, 10 minutes after i.v. injection); design: species or system Sprague-Dawley rats; details: for GH Release: immature female rats, serum GH 10 minutes after injection, mean ± SEM; for potency compared with Compound A (in words) / release of growth hormone when administered to rats via i.v. injection (in words): rats, i.v. injection
Description: (§1) Immature female Sprague-Dawley rats were obtained from the Charles River Laboratories (Wilmington, Mass.). After arrival they were housed at 25° C. with 14:10 hour light:dark cycle. Water and Purina rat choow were availablle ad libitum. Pups were kept with their mothers until 21 days of age.
(§2) Normal saline with 0.1% gelatin was the vehicle for s.c. and i.v. injections of Compounds 1 and 2 . The unanesthetized rats, weighing 55-65 grams, were injected i.v. with 0.2 ml solution via the tail vein. All animals were sacrificed by quillotine 10 minutes after the final test injection unless specified otherwise. Trunk blood for growth hormone (GH) determinations was collected following decapitation. The blood was allowed to clot, centrifuged and the serum separated from the clot. Serum was kept frozen until the day of sampling for radioimmunoassay (RIA) of growth hormone levels according to the following procedure, as developed by the National Institute of Arthritis, Diabetes and Digestive and Kidney Diseases (NIADDK).
Reagents are generally added to the RIA analysis tubes at a single sitting, at refrigerator temperature (about 4° C.) in the following sequence:
(b) "cold" (i.e., non-radioactive) standard or unknown serum sample to be analyzed,
(c) radio-iodinated growth hormone antigen, and
(d) growth hormone antiserum.
Reagent addition is generally carried out so that there is achieved a final RIA tube dilution in the range of about 1:10,000 up to 1:500,000 (antiserum to total liquid volume; vol:vol).
(§3) The mixed reagents are then typically incubated at room temperature (about 25° C.) for about 24 hours prior to addition of a second antibody (e.g., goat or rabbit anti-monkey gamma globulin serum) which binds to and cause precipitation of the complexed growth hormone antiserum. Precipitated contents of the RIA tubes are then analyzed for the number of counts in a specified period of time in a gamma scintillation counter. A standard curve is prepared by plotting number of radioactive counts as a function of growth hormone (GH) level. GH levels of unknowns are then determined by reference to the standard curve.
(§4) Serum GH was measured by RIA with reagents provided by the National Hormone and Pituitary Program. Serum levels are recorded in ng/ml in terms of the rat GH standard with 0.61 IU/mg. Data is recorded as the mean ± standard error of the mean (SEM). Statistical analysis was performed with student's t-test.

[2] = tested on: growth hormone (GH); experiment: In vivo synergistic effects on GH release in rats of combinations with Compound B (Group 3) and Compound C (Group 2); details: for synergism with Group 3 Compound B (in words): combination with Compound B (Tyr-DArg-Phe-Gly-NH2)
Description: as §1, §2, §3, §4
Compound 1 and Compound 2 of Examples 1 and 2, respectively, were each combined with the Group 2 and/or Group 3 polypeptides identified in Table 4 below and in the proprotions shown. The combinations were then tested for GH release in rats by the same procedure set forth in Example 3.

[3] = dose 10 of Column A compound combined with 30 μg Compound B
[4] = dose 30 of Column A compound combined with 30 μg Compound B

CCCC[C@H](NC(=O)[C@@H](NC(=O)[C@H](CC(=O)O)NC(=O)[C@H](CCC(N)=O)NC(=O)[C@H](CC(C)C)NC(=O)[C@H](CC(C)C)NC(=O)[C@H](CCCCN)NC(=O)[C@H](CCCNC(=N)N)NC(=O)[C@H](C)NC(=O)[C@H](CO)NC(=O)[C@H](CC(C)C)NC(=O)[C@H](CCC(N)=O)NC(=O)[C@H](CS)NC(=O)[C@H](CC(C)C)NC(=O)[C@@H](NC(=O)[C@H](CCCCN)NC(=O)[C@H](CCCNC(=N)N)NC(=O)[C@H](Cc1ccc(O)cc1)NC(=O)[C@H](CS)NC(=O)[C@H](CC(N)=O)NC(=O)[C@@H](NC(=O)[C@H](Cc1ccccc1)NC(=O)[C@@H](NC(=O)[C@H](C)NC(=O)[C@H](CC(=O)O)NC(=O)[C@H](C)NC(=O)[C@@H](N)Cc1ccc(O)cc1)[C@@H](C)CC)[C@@H](C)O)C(C)C)[C@@H](C)CC)C(=O)N[C@@H](CO)C(=O)N[C@@H](CCCNC(=N)N)C(N)=O [Compound 1] (H-YADAIFTNCYRKVLCQLSARKLLQDI[Nle]SR-NH2)
GH Release ([1]; 10 μg i.v.): 145 ± 41 ng/mL | GH Release ([1]; 30 μg i.v.): 151 ± 33 ng/mL | GH Release ([1]; 100 μg i.v.): 374 ± 94 ng/mL | potency compared with Compound A (in words) [1]: potencies similar to Compound A | release of growth hormone when administered to rats via i.v. injection (in words) [1]: highly active | synergism with Group 3 Compound B (in words) [2]: act synergistically | GH Release by Compound in Column A ([2]; dose 10, compound alone): 145 ± 41 ng/mL and 77 ± 10 ng/mL | GH Release of Compound in Column A & 30 μg Compound B [2, 3]: 3314 ± 275 ng/mL and 2078 ± 395 ng/mL | GH Release of Compound in Column A & 30 μg Compound B & 10 μg Compound C ([2]; dose 10 of Column A compound combined with 30 μg Compound B and 10 μg Compound C): 4947 ± 366 ng/mL | GH Release by Compound in Column A ([2]; dose 30, compound alone): 151 ± 33 ng/mL | GH Release of Compound in Column A & 30 μg Compound B [2, 4]: 2875 ± 472 ng/mL | GH Release by Compound in Column A ([2]; dose 100, compound alone): 374 ± 94 ng/mL | GH Release of Compound in Column A & 30 μg Compound B ([2]; dose 100 of Column A compound combined with 30 μg Compound B): 2328 ± 297 ng/mL

CCCC[C@H](NC(=O)[C@@H](NC(=O)[C@H](CC(=O)O)NC(=O)[C@H](CCC(N)=O)NC(=O)[C@H](CC(C)C)NC(=O)[C@H](CC(C)C)NC(=O)[C@H](CCCCN)NC(=O)[C@H](CCCNC(=N)N)NC(=O)[C@H](C)NC(=O)[C@H](CO)NC(=O)[C@H](CC(C)C)NC(=O)[C@H](CCC(N)=O)NC(=O)[C@@H]1CSSC[C@H](NC(=O)[C@H](CC(N)=O)NC(=O)[C@@H](NC(=O)[C@H](Cc2ccccc2)NC(=O)[C@@H](NC(=O)[C@H](C)NC(=O)[C@H](CC(=O)O)NC(=O)[C@H](C)NC(=O)[C@@H](N)Cc2ccc(O)cc2)[C@@H](C)CC)[C@@H](C)O)C(=O)N[C@@H](Cc2ccc(O)cc2)C(=O)N[C@@H](CCCNC(=N)N)C(=O)N[C@@H](CCCCN)C(=O)N[C@@H](C(C)C)C(=O)N[C@@H](CC(C)C)C(=O)N1)[C@@H](C)CC)C(=O)N[C@@H](CO)C(=O)N[C@@H](CCCNC(=N)N)C(N)=O [Compound 2] (H-YADAIFTNCYRKVLCQLSARKLLQDI[Nle]SR-NH2; disulfide 9-15)
GH Release ([1]; 3 μg i.v.): 62 ± 8 ng/mL | GH Release ([1]; 10 μg i.v.): 99 ± 11 ng/mL | GH Release ([1]; 30 μg i.v.): 132 ± 24 ng/mL | potency compared with Compound A (in words) [1]: potencies similar to Compound A | release of growth hormone when administered to rats via i.v. injection (in words) [1]: highly active | synergism with Group 3 Compound B (in words) [2]: act synergistically | GH Release by Compound in Column A ([2]; dose 3, compound alone): 62 ± 8 ng/mL | GH Release of Compound in Column A & 30 μg Compound B ([2]; dose 3 of Column A compound combined with 30 μg Compound B): 1689 ± 264 ng/mL | GH Release by Compound in Column A ([2]; dose 10, compound alone): 99 ± 11 ng/mL and 105 ± 29 ng/mL | GH Release of Compound in Column A & 30 μg Compound B [2, 3]: 3733 ± 515 ng/mL and 2241 ± 323 ng/mL | GH Release by Compound in Column A ([2]; dose 30, compound alone): 132 ± 24 ng/mL | GH Release of Compound in Column A & 30 μg Compound B [2, 4]: 2652 ± 560 ng/mL
